“And” between values parts separate entries of the source, which are not always exact repeats. Equal values may be shown once. Read-outs that look alike come from different tables or passages of the source. Blank lines part the entries; values can stand above or below the molecule they belong to.
Experiments:
[1] = tested on: Dd2 P. falciparum strain; parameters: method as in PMID 21316959; settings: previously determined, read-out: IC50 (nM) ± SD Dd2; cited from earlier work
[2] = tested on: 3D7 strain of P. falciparum; assay: In vitro anti-malarial activity against 3D7 strain ([3H]-hypoxanthine incorporation); format: cell-based, Plasmodium falciparum; settings: read-out: IC50 (nM) ± SD 3D7
Experimental: The 3D7 strain of P. falciparum was asexually cultured in human blood in complete medium (RPMI 1640 supplemented with 25 mM Hepes, pH 7.4) and 10% AB+ human serum. Drug effects were measured in microtitre plates on suspensions of asynchronous P. falciparum infected red blood cells (1.5% final haematocrit, 0.6% parasitaemia) according to Desjardins et al.[18]. Drugs, previously dissolved in DMSO, were diluted in culture medium so that the final DMSO concentration never exceeded 0.25%. […] Analyses of dose-effect curves were performed with the Graphpad Prism analytical software. […] Values are the means of at least two independent experiments (different cell cultures, different drug dilution stocks), each performed in duplicates.

[3] = tested on: D10 P. falciparum strain; parameters: method as in PMID 21316959; settings: previously determined, read-out: IC50 (nM) ± SD D10; cited from earlier work
[4] = tested on: Plasmodium vinckei (BY strain); assay: In vivo anti-malarial activity against P. vinckei in infected mice, four-day treatment; settings: for ED50: Plasmodium vinckei, in Mus musculus, 120 h
[5] = cited from earlier work
[6] = parameters: method as in PMID 17267300; settings: cited from earlier work
[7] = tested on: Plasmodium vinckei (BY strain); settings: mouse, in vivo

SMILES: C[C@@H]1CCC2[C@@H](C)[C@@H](OCCNCCCNc3ccnc4cc(Cl)ccc34)O[C@@H]3O[C@@]4(C)CCC1[C@@]23OO4 (stereo partly shown) [Hybrid 3]
IC50 [1]: 19.8 ± 0.3 nM
IC50 ([2]; 3D7 strain, 48 h incubation): 5.2 ± 0.7 nM
IC50 ([2]; Plasmodium falciparum, 3D7, 48 h, 3D7 strain, 48 h incubation): 5.15 nM
IC50 [3]: 14.3 ± 2.7 nM
ED50 ([4]; ip, read-out: ED50 ip): < 0.8 mg/kg
ED50 ([4]; po, read-out: ED50 per os): 13 mg/kg
Survival rate ([4]; at the same dosages (15 mg/kg ip, 50 mg/kg per os)): 66%
ED50ip/ ED50per os ratio (oral absorption) ([4]; in DMSO): < 6%
Parasitaemia on day 5, % of the control ([4]; ip 7.5 mg/kg D1-D4): 0.02%
Recrudescence ([4]; ip 7.5 mg/kg D1-D4): Recrudescence occurred
Parasitemia (%) D5 ([4]; ip 7.5 mg/kg D1-D4, Mean ± SEM): 0.02%
Parasitaemia on day 5, % of the control ([4]; ip 15 mg/kg D1-D4): 0.01%
Recrudescence ([4]; ip 15 mg/kg D1-D4): No recrudescence was observed for two of the three mice
Survival beyond day 20 ([4]; ip 15 mg/kg D1-D4): 66%
Mortality (day of death) ([4]; ip 15 mg/kg D1-D4, individual mice): 8
Dose giving complete cure / clearance of parasitaemia, ip ([4]; ip, four days, long-term monitoring): not obtained
Recrudescence ([4]; per os 25 mg/kg D1-D4): Delayed recrudescence
Parasitaemia on day 5, % of the control ([4]; per os 50 mg/kg D1-D4): 0.01%
Recrudescence ([4]; per os 50 mg/kg D1-D4): 2 of the 3 mice showed no recrudescence
Survival beyond day 17 ([4]; per os 50 mg/kg D1-D4): 66%
Dose giving complete cure / clearance of parasitaemia, per os ([4]; per os, four days, long-term monitoring): not obtained
Parasitemia (%) D5 ([4]; po 25 mg/kg D1-D4, Mean ± SEM, 25 mg/kg): 0.02%
Parasitemia (%) D5 ([4]; po 25 mg/kg D1-D4, Mean ± SEM, listed as hybrid 3, 25 mg/kg): less than 10%
Mortality (day of death) ([4]; po 25 mg/kg D1-D4, individual mice): 15
Parasitemia (%) D5 ([4]; po 50 mg/kg D1-D4, Mean ± SEM): 0.01%
Mortality (day of death) ([4]; po 50 mg/kg D1-D4, individual mice): 18
Parasitemia (%) D17 ([4]; po 50 mg/kg D1-D4, individual mice, 50 mg/kg): no visualized parasitaemia and 51%

IC50 ([2]; Plasmodium falciparum, 3D7, 48 h): 20 ± 1.6 nM
SMILES: CCN(CC)CCCC(C)Nc1ccnc2cc(Cl)ccc12 (stereo not shown) [CQ, Chloroquine]
IC50 [1]: 158 ± 52.7 nM
IC50 [3]: 21.5 ± 6.7 nM

SMILES: C[C@H]1[C@@H](O)O[C@@H]2O[C@@]3(C)CC[C@H]4[C@H](C)CC[C@@H]1[C@@]24OO3 [DHA, Dihydroartemisinin]
Half-life ip [5]: 25 min
IC50 [1]: 2.1 ± 0.3 nM
IC50 [3]: 5.1 ± 0.6 nM
AUC [6]: 8748 ± 2016 ng·min/mL
Clearance rate [6]: 1190 mL/min/kg
Oral volume of distribution [6]: 353.5 ± 194.9 L/kg
Maximum concentration ([6]; dose of 10 mg/kg): 142.2 ± 21.1 ng/mL
Time to maximum concentration ([6]; dose of 10 mg/kg): 48 ± 6 min

SMILES: C[C@H]1[C@H](OC(=O)CCC(=O)O)O[C@@H]2O[C@@]3(C)CC[C@H]4[C@H](C)CC[C@@H]1[C@@]24OO3 [Artesunate, reference compound]
ED50 ([4]; ip, read-out: ED50 ip): < 1 mg/kg
ED50 ([4]; po, read-out: ED50 per os): 1.8 mg/kg
Reduction of parasitaemia at day 5 ([4]; ip 1 mg/kg/day, four days): 70%
Parasitaemia remaining after treatment ([4]; ip 30 mg/kg/day, four days): 3%
Survival ([4]; ip 30 mg/kg/day, four days): 50%
Curative dose relative to ED50 ([4]; ip and per os): about 40 times
Decrease of parasitaemia ([4]; per os 4 mg/kg/day, four days): 93%
Dose giving complete cure / clearance of parasitaemia, per os [7]: 80 mg/kg

From paper PMC3598976, “Potent in vivo anti-malarial activity and representative snapshot pharmacokinetic evaluation of artemisinin-quinoline hybrids” (Malaria Journal, 2013)
